According to US8283357B2, “Cycloalkylcarbamate benzamide aniline HDAC inhibitor compounds” (Gilead Sciences, Inc., priority 2009, dated 2012):

Key:
HDAC-1 = HDAC-1 (Homo sapiens, UniProt Q13547); experiment: HDAC-1 inhibitory activity assay (fluorophore/quencher peptide substrate); format: biochemical; settings: enzyme/compound pre-incubated 2 hours at room temperature; reaction about 45 minutes
Procedure: (§1) HDAC inhibitory activity of the compound of Example 1 was measured by an assay in which HDAC-1 or -3 were used as a target molecule. The test compound was suspended in and titrated in DMSO. It was then spotted into a 384-well test plate. The enzyme, HDAC-1 or -3, was diluted in assay buffer containing 25 mM Tris-HCl (pH 8.0), 137 mM NaCl, 2.7 mM KCl, and 0.01% Tween-20 and added to the pre-spotted compound. The enzyme/compound mix was incubated at room temperature for 2 hours. The peptide substrate containing a fluorophore/quencher pair was diluted in the same assay buffer and added to the compound/enzyme mix initiating the reaction. The reaction incubated at room temperature for about 45 minutes. A concentrated developer solution was diluted in the assay buffer, and added to the reaction. The reaction was incubated at room temperature for about 15 minutes and relative fluorescence was read on an instrument reader.

HDAC-3 = HDAC-3 (Homo sapiens, UniProt O15379); experiment: HDAC-3 inhibitory activity assay (fluorophore/quencher peptide substrate); format: biochemical; settings: enzyme/compound pre-incubated 2 hours at room temperature; reaction about 45 minutes
Chain of HDAC-3 (O15379 whole entry, species assumed): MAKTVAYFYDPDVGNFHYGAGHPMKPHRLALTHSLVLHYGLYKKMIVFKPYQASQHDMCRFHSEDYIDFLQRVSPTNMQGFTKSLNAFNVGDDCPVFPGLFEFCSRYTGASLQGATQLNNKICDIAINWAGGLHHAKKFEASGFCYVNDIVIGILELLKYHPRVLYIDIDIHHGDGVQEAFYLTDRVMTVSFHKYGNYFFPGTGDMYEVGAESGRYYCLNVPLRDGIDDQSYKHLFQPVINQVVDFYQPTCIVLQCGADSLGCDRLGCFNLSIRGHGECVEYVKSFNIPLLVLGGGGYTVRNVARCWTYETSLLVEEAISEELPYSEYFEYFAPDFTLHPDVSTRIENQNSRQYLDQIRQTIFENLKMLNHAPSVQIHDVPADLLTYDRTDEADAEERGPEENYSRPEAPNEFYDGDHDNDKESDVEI
Chain of HDAC-3 (Q9Y618 395-489 partner limits assumed, species assumed): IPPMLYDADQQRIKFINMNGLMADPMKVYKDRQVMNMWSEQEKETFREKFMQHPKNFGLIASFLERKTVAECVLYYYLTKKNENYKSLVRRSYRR
Procedure: as §1

Chain of HDAC-1 (Q13547 whole entry, species assumed): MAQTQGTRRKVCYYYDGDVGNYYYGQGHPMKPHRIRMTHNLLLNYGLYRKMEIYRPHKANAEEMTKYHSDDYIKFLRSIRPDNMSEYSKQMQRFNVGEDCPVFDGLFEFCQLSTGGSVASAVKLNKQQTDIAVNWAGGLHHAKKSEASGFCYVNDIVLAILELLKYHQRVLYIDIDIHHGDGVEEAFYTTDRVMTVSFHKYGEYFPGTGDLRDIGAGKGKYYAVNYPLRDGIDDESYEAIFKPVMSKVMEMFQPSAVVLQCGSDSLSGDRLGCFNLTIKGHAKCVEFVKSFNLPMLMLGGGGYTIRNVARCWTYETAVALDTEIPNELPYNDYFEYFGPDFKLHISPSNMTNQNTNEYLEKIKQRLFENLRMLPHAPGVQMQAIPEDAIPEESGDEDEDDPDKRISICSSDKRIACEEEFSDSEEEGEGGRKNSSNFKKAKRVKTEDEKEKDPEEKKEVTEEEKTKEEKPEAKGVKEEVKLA

| Compound | IC50 (HDAC-1) [µM] | IC50 (HDAC-3) [µM] |
| --- | --- | --- |
| Nc1ccc(-c2ccc(F)cc2)cc1NC(=O)c1ccc(NC(=O)C2(NC(=O)OCc3ccccc3)CC2)cc1 [Example 6, Benzyl-1-((4-((2-amino-5-(4-fluorophenyl)phenyl)carbamoyl)phenyl)carbamoyl)cyclopropyl carbamate] | 0.0074 | > 10 |
| CN(C(=O)C1(NC(=O)OCc2ccccc2)CC1)c1ccc(C(=O)Nc2cc(-c3ccc(F)cc3)ccc2N)cc1 [Example 9, Benzyl-1-((4-((2-amino-5-(4-Fluorophenyl)phenyl)carbamoyl)phenyl)(methyl)carbamoyl)cyclopropylcarbamate] | 0.0082 | 7.51 |
| CC(C)(C)OC(=O)NC1(C(=O)Nc2ccc(C(=O)Nc3ccccc3N)cc2)CC1 [Example 2, tert-Butyl-1-((4-((2-aminophenyl)carbamoyl)phenyl)carbamoyl)cyclopropyl carbamate] | 0.0628 | 0.378 |
| CC(C)(C)OC(=O)NC1(C(=O)Nc2ccc(C(=O)Nc3ccccc3N)cc2)CCCC1 [Example 3, tert-Butyl-1((4-((2-aminophenyl)carbamoyl)phenyl)carbamoyl)cyclopentylcarbamate] | 0.0609 | 0.482 |
| Nc1ccc(-c2cccs2)cc1NC(=O)c1ccc(NC(=O)C2(NC(=O)OCc3ccccc3)CC2)cc1 [Example 5, Benzyl-1-((4-((2-amino-5-(thiophen-2-yl)phenyl)carbamoyl)phenyl)carbamoyl)cyclopropyl carbamate] | 0.0034 | > 10 |
| Nc1ccc(-c2ccc(Cl)s2)cc1NC(=O)c1ccc(NC(=O)C2(NC(=O)OCc3ccccc3)CC2)cc1 [Example 7, Benzyl-1-((4-((2-amino-5-(5-chlorothiophen-2-yl)phenyl)carbamoyl)phenyl)carbamoyl)cyclopropylcarbamate] | 0.0267 | > 10 |
| CC(C)(C)NC(=O)NC1(C(=O)Nc2ccc(C(=O)Nc3cc(-c4ccc(F)cc4)ccc3N)cc2)CC1 [Example 11, N-(4-amino-4′-fluorobiphenyl-3-yl)-4-(1-(3-tert-butylureido)cyclopropanecarboxamido)benzamide] | 0.009 | > 10 |
| CC(C)(C)OC(=O)NC1(C(=O)Nc2ccc(C(=O)Nc3ccccc3N)cc2)CCCCC1 [Example 1, tert-Butyl-1-((4-((2-aminophenyl)carbamoyl)phenyl)carbamoyl)cyclohexyl carbamate] | 0.0447 | 0.378 |
| Nc1ccc(-c2ccc(F)cc2)cc1NC(=O)c1ccc(NC(=O)C2(N)CC2)cc1 [Example 10, N-(4-Amino-4′-fluorobiphenyl-3-yl)-4-(1-aminocyclopropanecarboxamido)benzamide] | 0.0052 | > 10 |
| Nc1ccccc1NC(=O)c1ccc(NC(=O)C2(NC(=O)OCc3ccccc3)CC2)cc1 [Example 4, Benzyl-1-((4-((2-aminophenyl)carbamoyl)phenyl)carbamoyl)cyclopropyl carbamate] | 0.025 | 0.171 |
| Nc1ccc(-c2cccs2)cc1NC(=O)c1ccc(NC(=O)C2(NC(=O)OCc3ccccc3)CC2)c(F)c1 [Example 8, Benzyl-1-((4-((2-amino-5-(thiophen-2-yl)phenyl)carbamoyl)-2-fluorophenyl)carbamoyl)cyclopropylcarbamate] | 0.0056 | > 10 |
